# No end group written: not given here.
# Columns and labels:
# [1] = tested on: second order arterioles of the hamster cheek pouch microcirculation; test: Hamster cheek pouch microcirculation, arteriolar diameter during suffusion; format: in vivo
# Description: According to this example, the vasorelaxant effects of VIP in a SSM were determined according to the following method. Specifically, adult male golden Syrian hamsters were purchased from Sasco (Omaha, Nebr.). Adult male hamsters with spontaneous hypertension and their normotensive controls were purchased from the Canadian Hybrid Farms (Halls Harbour, NS, Canada). Hypertensive animals have been identified after cross-breeding of hamsters with hereditary cardiomyopathy and normal golden Syrian hamsters. These albino animals have previously been used in our laboratory (Rubinstein et al., Biochem. Biophys. Res. Commun. 183:1117-1123 (1992); Artwohl et al., FASEB J. 10:A629 (1996)). Animals were anesthetized with pentobarbital sodium (6 mg/100 g body weight, i.p.). A tracheotomy was performed to facilitate spontaneous breathing. A femoral vein was cannulated to inject supplemental anesthesia during the experiment (2-4 mg/100 g body weight/h). Body temperature was maintained constant (37-38° C.) and monitored via heating pad and a feed back controller throughout the experiment.
# The bioactivity of the VIP in SSM by diffusing it in situ was determined by visualization of the microcirculation of the hamster cheek pouch. The microcirculation of the cheek pouch was visualized locally by a method previously developed in our laboratory (Suzuki et al., Life Sci. 57:1451-1457 (1995); Suzuki et al., Am. J. Physiol. 271:R393-R397 (1996); and Suzuki et al., Am. J. Physiol. 271:H282-H287 (1996)). Briefly, the left cheek pouch was spread over a small plastic baseplate, and an incision was made in the outer skin to expose the cheek pouch membrane. The connective avascular tissue layer was removed, and a plastic chamber was placed over the baseplate and secured in place by suturing the skin around the upper chamber. This forms a triple-layered complex: the baseplate, the exposed cheek pouch membrane, and the upper chamber. After these initial procedures, the hamster is transferred to a heated microscope stage. The chamber was connected to a reservoir containing warmed bicarbonate buffer (37-38° C.) that allowed continuous suffusion of the cheek pouch. The buffer was bubbled continuously with 95% N2-5% CO2 (pH 7.4). […]
# The cheek pouch microcirculation was epi-illuminated with a 100-W mercury light source and viewed through a microscope (Nikon, Tokyo, Japan) at a magnification of ×40. […] The inner-wall diameter of second order arterioles ([…]), which modulated vascular resistance in the cheek pouch, (Raud, Acta Physiol. Scand. (Suppl.) 578:1-58 (1989); Suzuki et al., Life Sci. 57:1451-1457 (1995); Suzuki et al., Am. J. Physiol. 271:R393-R397 (1996)) was measured from the video display of the microscope image using a videomicrometer (VIA 100; Boeckeler Instruments, Tucson, Ariz.). […]
# [2] = Circular dichroism (CD) spectral analysis of peptide conformation, % helicity; format: physicochemical; conditions: room temperature
# Description: According to this example, circular dichroism (CD) experiments were performed to determine the conformation changes of VIP in phospholipid micelles, pH and temperature changes, and in aqueous solutions. CD spectra were recorded on a JASCO J-700 spectropolarimeter using a fused quartz cell of 1 cm pathlength. Spectra in 0.15 N saline (pH 6.8) and 5 mM Hepes buffer (pH 7.4) were measured at a peptide concentration of 4 μM and at a lipid concentration of 1 mM. The effects of CaM, pH (6.8 or 7.4) and temperature (25° C. or 37° C.) on VIP conformation were also studied. The conformation of VIP fragments was likewise studied. All measurements were carried out at room temperature (˜25° C.) unless otherwise noted. A bandwidth of 1.0 nm and a step resolution of 0.5 nm were used to collect an average of 9 accumulations/sample at the […] (200-260 nm wavelength). The peptide spectra shown have the background buffer scans, and empty vesicle scans subtracted and were smoothed using the noise reduction function. The temperature during spectral analysis was maintained by using a circulating water bath attached to a jacket surrounding the fused quartz CD cell. The percent helical characterization of VIP was determined by a method of Haghjoo et al., Peptide Research 9 (6):327-331 (1996): % helicity=[−(θ208+4000)/29 000]*100 and are reported in table 1.
# According to the example, CD was used to determine the conformation of VIP in saline, Hepes buffer and phospholipid micelles at room temperature and at 37° C. The CD spectra analysis was performed after 13 μg of human VIP incubated with 1 ml PEG-DSPE (1 μmol) micelles for 30 min at room temperature as determined by preliminary studies. A bandwidth of 1.0 nm and a step resolution of 0.5 nm were used to collect an average of 9 accumulations/sample at near UV range (200-260 nm). The temperature was maintained during spectral analysis by a circulating water bath attached to a jacket surrounding the fused quartz CD cell. The evaluation of VIP molecule conformation in SSM by using circular dichroism was successful because the distortion caused by spherical particles was eliminate due to the small size and univesicular structure of the SSM. […] The phospholipid micelles were ideal in our study of VIP conformation since it provided a hydrophobic core similar to the phospholipid bilayer of the SSL. Moreover, both the negative charge, and the hydrophilic layer provided by the PEG mimic the conditions of our SSL and make it possible to infer the VIP conformational results.
# According to this example, the method of example 4 was repeated to determine the conformation of VIP in saline and phospholipid micelles plus calmodulin (CaM). CD spectra measurements were performed after 13 μg/ml of VIP was incubated with 1.0 μmol/ml of phospholipid micelles for 30 min followed by 10^−10 M CaM incubated with VIP in phospholipid micelles for 2 h at 4° C. (conjugation paper). A bandwidth of 1.0 nm and a step resolution of 0.5 nm were used to collect the average of 9 accumulations/sample at near UV range (200-260 nm).
# According to this example the method of example 4 was repeated to determine the conformation of VIP fragments in saline and phospholipid micelles. CD spectra measurements were performed after incubation of VIP fragments with phospholipid micelles, at a molar concentration equivalent to VIP (i.e. 9 μg/ml for VIP10-28 fragment and 6 μg/ml for VIP1-12 fragment), for 30 min. A bandwidth of 1.0 nm and a step resolution of 0.5 nm were used to collect the average of 9 accumulations/sample at near UV range (200-260 nm). Specifically, CD spectra of human VIP fragment (1-12) and (10-28) in the presence of phospholipid micelles are shown in FIG. 5. […] These effects correlate well with the % helicity of VIP fragments determined in saline and in the presence of phospholipids (Table 1). […]
# anesthetized rats = test: Infusion in anesthetized rats, haemodynamics by radioactive microsphere technique; format: in vivo, rat; conditions: 50 ng/kg/min infused for 30 minutes
# Description: According to this aspect of the invention, the effect of infusion of enthelin-1 (ET-1) alone or in a SSM formulation on mean arterial pressure (MAP), cardiac output(CO), total peripheral resistance (TPR), and regional blood circulation in anesthetized rats was examined using a radioactive microsphere technique. SSM with or without ET-1 were prepared according to the method described in Example 11 using DSPE-PEG in saline. Treatments for individual groups consisted of: (i) control, SSM at 2.7 mg/ml (n=6); (ii) ET-1 infusion at 50 ng/kg/min (n=5), and (iii) ET-1 at 50 ng/kg/min in SSM (n=8). Drugs were infused at 0.1 ml/min for 30 minutes.
# [3] = tested on: second order arterioles of the hamster cheek pouch microcirculation; conditions: Séjourné et al. 1997; cited from earlier work
# physchem = conditions: pH 7.4, aqueous with cosolvent or surfactant or cyclodextrin, thermodynamic from solid, paclitaxel solubilized by SSMM
# Description: Solubilization potential of both micelle compositions for a model drug was measured by HPLC after separation of the unincorporated drug.
# Excess drug was removed by centrifugation and the supernatant was analyzed by HPLC. […] HPLC eluent was measured with adsorption at 254 nm.
# According to this example, micelle compositions of the invention were further characterized. Particularly, the physiochemical properties of sterically stabilized micelles prepared with DSPE conjugated to molecular weight 2000, 3000, and 5000 PEG were analyzed. The critical micelle concentration (CMC) of phospholipids was determined at pH 7.4 and 25° C. using a water-insoluble fluorescent probe (1,6-diphenyl-1,3,5-hexatriene). Micellar size was determined by quasi-elastic light scattering.
# The solvent was then removed by vacuum rotary evaporation under a stream of argon to form a dry film. This dry film was further dried under vacuum overnight to remove any traces of remaining solvent. The dried film was rehydrated with isotonic 0.01M HEPES buffer, pH 7.4. The solution was then flushed with argon, sealed and equilibrated for 12 h at room temperature. The unsolubilized excess paclitaxel was removed by centrifugation at 13,000 g for 5 min to obtain a clear dispersion.
# The solubilization potentials of SSMM and SSM for paclitaxel were determined by RP-HPLC. The clear aqueous dispersion was diluted with methanol. 20 μl of each sample was injected at least three times into a μBondapak C-18 column, 3.9 mm×30 cm (Waters, Milford, Mass.) equipped with a C18 column guard. The column was eluted with acetonitrile/water (60:40) at 1.0 ml/min (Waters 600). Detection was by UV absorption measurement at 227 nm (Waters 490). Peak areas were calculated by interfacing the detector to an electronic integrator (Hewlett Packard). The drug concentration was calculated from standard curves.
# [4] = tested on: human breast cancer cells (MCF-7); test: In vitro cytotoxic activity, sulforhodamine B; conditions: three days incubation
# Description: The cytotoxic activity of paclitaxel in SSMM, SSM and dimethyl sulfoxide (10% DMSO) was determined against human breast cancer cells (MCF-7; ATCC # HTB-22). The cell line was maintained in RPMI 1640 medium containing 10% fetal bovine serum and 1.0% antibiotics (penicillin and streptomycin), in a 5% carbon dioxide humidified atmosphere at 37° C. Optimum solutions of paclitaxel-SSM and paclitaxel-SSMM chosen from the solubilization studies were used as the test solutions. A 10% dimethyl sulfoxide (DMSO) solution of paclitaxel was also tested as a control. […]
# Briefly, samples were prepared as described earlier and serial dilutions were made to obtain paclitaxel concentrations ranging from 0.0013 to 4 μg/ml using the respective solvent that is either HEPES buffer or 10% DMSO. […] Each sample was evaluated in triplicate. […] The optical density was then read at 515 nm. The optical density readings obtained for the solvent controls were used to define 100% growth after correcting for the value obtained for the zero day control. These values were then expressed as a % survival and ED50 values calculated using non-linear regression analysis (percent survival versus concentration).
# All the data are expressed as means±standard deviation (SD). […] ED50 values were calculated for each formulation and compared statistically using one-way analysis of variance. […]
compound,measurement,setting,value
secretin,increase in arteriolar diameter from baseline,[1]; suffusion of 5 nmol for 7 min,10.3±0.6%
same,Conformation from CD spectrum in the presence of phospholipid micelles (SSM),[2],appreciable α-helix conformation
same,Conformation from CD spectrum in saline,[2]; saline,unordered
"enthelin-1 (CSCSSLMDKECVYFCHLDIIW; ends and bridges not checked; cysteine pairing not given here; UniProt P05305 53-73, looked up) [ET-1]",Renal vascular resistance,anesthetized rats,76%
same,increase in TPR,anesthetized rats,102%
same,vascular resistance in brain,anesthetized rats,62%
"VIP10-28: VIP fragment 10-28, a selective VIP receptor antagonist (YTRLRKQMAVKKYLNSILN; ends and bridges not checked; UniProt P01282 134-152, looked up, fragment)",effect on VIP in SSL response,[3],attenuated
same,effect on native VIP response,[3],completely abolished
same,effect on secretin- and secretin in SSM-induced vasodilation,[1]; VIP10-28 (50 nmol) suffused 30 min before and during secretin (5 nmol),abrogated
same,effects on arteriolar diameter,[1]; suffusion of VIP10-28 alone (50 nmol),no significant effects
same,Conformation from CD spectrum in the presence of phospholipid micelles (SSM),[2],predominantly α-helix structure
same,% Helicity (in the presence of) Phospholipids,[2]; phospholipids,18%
same,% Helicity (in the presence of) Saline,[2]; saline,3%
same,Conformation from CD spectrum in saline,[2]; saline,primarily random coil conformation
CC(=O)O[C@H]1C(=O)[C@@]2(C)[C@H]([C@H](OC(=O)c3ccccc3)[C@]3(O)C[C@H](OC(=O)[C@H](O)[C@@H](NC(=O)c4ccccc4)c4ccccc4)C(C)=C1C3(C)C)[C@]1(OC(C)=O)CO[C@@H]1C[C@@H]2O [paclitaxel],solubility at 12 h,physchem,1320 ± 48 µg/mL
same,cytotoxic activity against MCF-7 cells,[4],comparable cytotoxic activities

# From patent US20110142884A1, “Materials and Methods for Making Improved Micelle Compositions” (The Board of Trustees of the University of Illinois, priority 2002, published 2011)
